Like-named read-outs stand apart in the source and are kept apart here. Blank lines part the entries; values can stand above or below the compound they belong to.
Tests used:
[1] = assay type: physicochemical; settings: pH 7.4
From the text: (§1) Solubility and Cell permeability
(§2) The thermodynamic aqueous solubility, LogD and cell permeability across MCDCK cell monolayers
(§3) Table S21. MCDCK permeability data and efflux ratios (ERs) for grazoprevir.
(§4) Solubility LogD7.4[b] PappAB (x10-6 ER[d]
[a] Determined in aqueous potassium phosphate buffer at pH 7.4. Values are means ± std from three repeats. […]

[2] = assay type: physicochemical; settings: pH 7.4; remark: listed apart in the source
From the text: as §1, §2, §3
Solubility LogD7.4[b] PappAB (x10-6 ER[d] […]
[b] Determined using a miniaturized shake-flask procedure. Values are means from three repeats. […]

[3] = tested on: MCDCK cell monolayers; assay type: in vitro ADME
From the text: as §1, §2, §3, §4
[a] Determined in aqueous potassium phosphate buffer at pH 7.4. Values are means ± std from three repeats.
[b] Determined using a miniaturized shake-flask procedure. Values are means from three repeats.
[c] Papp AB: permeability in the apical-to-basolateral (AB) direction across MCDCK cell monolayers. Values are
means + std from three repeats.
[d] ER: efflux ratio (Papp BA/Papp AB).

[4] = cited from earlier work; for SA 3D PSA variation between solution conformations / spread in Rgyr for the solution ensembles: solution ensembles
From the text: Grazoprevir (Figure 1a) is a second‐generation hepatitis C virus (HCV) nonstructural 3/4A (NS3/NS4A) protease inhibitor developed by Merck in 2012 and approved by the FDA in 2016 as part of an orally administered combination therapy with elbasvir. Like most NS3/NS4A protease inhibitors, grazoprevir is orally available despite its limited water solubility (Table S21). The potential chameleonicity of grazoprevir has not yet been structurally characterized. Determining the structures of bRo5 inhibitors like grazoprevir in various states is crucial for understanding their chame ... || For bRo5‐drugs, 3D descriptors such as the R gyr as a measure of size instead of molecular weight, and the SA 3D PSA instead of the number of hydrogen bond donors and acceptors, often provide a better view to explain their aqueous solubility and membrane permeability. Even though the exact values of the R gyr and SA 3D PSA for a single conformation might not be informative, they can give a perspective when compared for conformations between solvents or between similar compounds [6, 23]. In solution the SA 3D PSA varies by 79 Å^2 (Supporting information Figure S13) between the c ...

[5] = tested on: MCDCK cell monolayers; settings: comparison value quoted in Conclusions; not in the printed Table S21; cited from earlier work
From the text: This study presents a comprehensive analysis of a macrocyclic drug's conformational journey by experimental means; from the solid state, through solution environments, to the target‐bound state. […] By determining solution‐state ensembles of grazoprevir in both polar and apolar environments—mimicking extracellular and membrane‐like conditions—and comparing these to previously repo ...

[6] = conformations assessed computationally

Solubility [1]: 12.9 ± 2.6 µM | LogD7.4 [2]: 3.4 | ER (efflux ratio, Papp BA/Papp AB) [3]: 3.1 | PappAB [3]: 5.9 ± 0.89 x10-6 cm/s | passive membrane permeability [3]: 5.9 ×10⁻⁶ cm/s
Structure (SMILES): C=C[C@@H]1C[C@]1(NC(=O)[C@@H]1C[C@@H]2CN1C(=O)[C@H](C(C)(C)C)NC(=O)O[C@@H]1C[C@H]1CCCCCc1nc3ccc(OC)cc3nc1O2)C(=O)NS(=O)(=O)C1CC1.O [grazoprevir, Grazoprevir]

Structure (SMILES): Cc1cnc(C(=O)N[C@H]2CCCCC/C=C\[C@@H]3C[C@@]3(C(=O)NS(=O)(=O)C3CC3)NC(=O)[C@@H]3C[C@@H](Oc4nc5ccccc5c5ccccc45)CN3C2=O)cn1 [paritaprevir]
Rgyr range for the solution conformations (polar-to-apolar span) [4, 6]: 0.36 Å | SA 3D PSA polar-to-apolar span [4, 6]: 76 Å^2

Structure (SMILES): COc1ccc2c(O[C@@H]3C[C@H]4C(=O)N[C@]5(C(=O)NS(=O)(=O)C6CC6)C[C@H]5/C=C\CCCCN(C)C(=O)[C@@H]4C3)cc(-c3nc(C(C)C)cs3)nc2c1C [simeprevir]
passive membrane permeability [5]: 0.5 ×10⁻⁶ cm/s | SA 3D PSA variation between solution conformations [4]: 72 Å^2 | spread in Rgyr for the solution ensembles [4]: 1.11 Å

Structure (SMILES): C=C[C@@H]1C[C@]1(NC(=O)[C@@H]1C[C@@H](Oc2ncc(OC)c3ccc(Cl)cc23)CN1C(=O)[C@@H](NC(=O)OC(C)(C)C)C(C)(C)C)C(=O)NS(=O)(=O)C1CC1 [asunaprevir]
SA 3D PSA variation between solution conformations [4]: 88 Å^2 | spread in Rgyr for the solution ensembles [4]: 1.22 Å

Source: PMC12929930, “Conformational Trajectory of the Molecular Chameleon Grazoprevir From Formulation to Target‐Bound” (Chemistry (Weinheim an Der Bergstrasse, Germany), 2025)
